Assay results taken from publication PMC7488488 (Acta Pharmaceutica Sinica. B, 2019).

Experiments:
MDM2 = MDM2 (Homo sapiens, UniProt Q00987); assay: TR-FRET; format: binding; settings: for inhibition at 1 µM: read-out: Inhibition rate at 1.0 μmol/L, MDM2
U87MG cells = assay: MTT cell proliferation assay; format: cell-based; settings: Homo sapiens, U-87 MG, 24 h, read-out: Anti-proliferative activity IC50, U87MG
U251 cells = assay: MTT cell proliferation assay; format: cell-based; settings: Homo sapiens, U-251, 24 h, read-out: Anti-proliferative activity IC50, U251
T98G cells = assay: MTT cell proliferation assay; format: cell-based; settings: Homo sapiens, T98G, 24 h, read-out: Anti-proliferative activity IC50, T98G

MDM2, sequence (Q00987 whole entry): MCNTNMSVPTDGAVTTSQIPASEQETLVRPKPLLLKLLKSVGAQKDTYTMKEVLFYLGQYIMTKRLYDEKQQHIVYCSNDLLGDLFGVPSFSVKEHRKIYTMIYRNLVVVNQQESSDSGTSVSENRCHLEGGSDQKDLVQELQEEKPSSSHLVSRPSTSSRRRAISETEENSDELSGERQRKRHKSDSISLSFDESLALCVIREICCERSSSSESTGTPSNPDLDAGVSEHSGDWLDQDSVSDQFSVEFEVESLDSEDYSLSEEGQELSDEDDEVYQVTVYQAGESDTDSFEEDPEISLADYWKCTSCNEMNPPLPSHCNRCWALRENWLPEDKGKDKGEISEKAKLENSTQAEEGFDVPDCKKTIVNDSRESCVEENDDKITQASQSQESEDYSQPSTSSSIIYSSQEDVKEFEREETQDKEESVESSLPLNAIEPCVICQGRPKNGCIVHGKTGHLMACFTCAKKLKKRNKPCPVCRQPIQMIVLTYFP

Compound	inhibition at 1 µM (MDM2)	IC50 (U87MG cells)	IC50 (U251 cells)	IC50 (T98G cells)	IC50 (MDM2)
CCOC(=O)[C@H]1Cc2c(cc([N+](=O)[O-])cc2[N+](=O)[O-])[C@@H](O)[C@@]12C(=O)Nc1ccc(F)cc12 [4b, Ethyl (1′R,3R,3′S)-5-fluoro-1′-hydroxy-5′,7′-dinitro-2-oxo-3′,4′-dihydro-1′H-spiro[indoline-3,2′-naphthalene]-3′-carboxylate]	81.4 ± 10.2%	25.7 ± 1.4 µM	32.6 ± 3.5 µM	49 ± 6.3 µM	–
CCOC(=O)[C@H]1Cc2c(cc([N+](=O)[O-])cc2[N+](=O)[O-])[C@H](O)[C@]12C(=O)Nc1ccc(F)cc12 [4b′, Ethyl (1′S,3S,3′S)-5-fluoro-1′-hydroxy-5′,7′-dinitro-2-oxo-3′,4′-dihydro-1′H-spiro[indoline-3,2′-naphthalene]-3′-carboxylate]	55.6%	> 50 µM	> 50 µM	> 50 µM	–
CCOC(=O)[C@H]1Cc2c(cc([N+](=O)[O-])cc2[N+](=O)[O-])[C@@H](O)[C@@]12C(=O)Nc1c(F)cccc12 [4c, Ethyl (1′R,3R,3′S)-7-fluoro-1′-hydroxy-5′,7′-dinitro-2-oxo-3′,4′-dihydro-1′H-spiro[indoline-3,2′-naphthalene]-3′-carboxylate]	76.5 ± 13.7%	19.4 ± 2.3 µM	34.3 ± 4 µM	51.6 ± 6.2 µM	–
CCOC(=O)[C@H]1Cc2c(cc([N+](=O)[O-])cc2[N+](=O)[O-])[C@H](O)[C@]12C(=O)Nc1c(F)cccc12 [4c′, Ethyl (1′S,3S,3′S)-7-fluoro-1′-hydroxy-5′,7′-dinitro-2-oxo-3′,4′-dihydro-1′H-spiro[indoline-3,2′-naphthalene]-3′-carboxylate]	45.3%	59.9 µM	> 50 µM	> 50 µM	–
CCOC(=O)[C@H]1Cc2c(cc([N+](=O)[O-])cc2[N+](=O)[O-])[C@@H](O)[C@@]12C(=O)Nc1ccc(Cl)cc12 [4d, Ethyl (1′R,3R,3′S)-5-chloro-1′-hydroxy-5′,7′-dinitro-2-oxo-3′,4′-dihydro-1′H-spiro[indoline-3,2′-naphthalene]-3′-carboxylate]	82.6 ± 8.4%	8.3 ± 1.5 µM	17.8 ± 3.2 µM	21.6 ± 4.5 µM	0.52 ± 0.07 µM
CCOC(=O)[C@H]1Cc2c(cc([N+](=O)[O-])cc2[N+](=O)[O-])[C@H](O)[C@]12C(=O)Nc1ccc(Cl)cc12 [4d′, Ethyl (1′S,3S,3′S)-5-chloro-1′-hydroxy-5′,7′-dinitro-2-oxo-3′,4′-dihydro-1′H-spiro[indoline-3,2′-naphthalene]-3′-carboxylate]	54.2%	60.4 µM	> 50 µM	> 50 µM	1.8 ± 0.12 µM
CCOC(=O)[C@H]1Cc2c(cc([N+](=O)[O-])cc2[N+](=O)[O-])[C@@H](O)[C@@]12C(=O)Nc1cc(Cl)ccc12 [4e, Ethyl (1′R,3R,3′S)-6-chloro-1′-hydroxy-5′,7′-dinitro-2-oxo-3′,4′-dihydro-1′H-spiro[indoline-3,2′-naphthalene]-3′-carboxylate]	76.4 ± 6%	19.2 ± 4.4 µM	28.6 ± 2.9 µM	22.5 ± 4.2 µM	–
CCOC(=O)[C@H]1Cc2c(cc([N+](=O)[O-])cc2[N+](=O)[O-])[C@H](O)[C@]12C(=O)Nc1cc(Cl)ccc12 [4e′, Ethyl (1′S,3S,3′S)-6-chloro-1′-hydroxy-5′,7′-dinitro-2-oxo-3′,4′-dihydro-1′H-spiro[indoline-3,2′-naphthalene]-3′-carboxylate]	48.3%	> 50 µM	> 50 µM	> 50 µM	–
CCOC(=O)[C@H]1Cc2c(cc([N+](=O)[O-])cc2[N+](=O)[O-])[C@@H](O)[C@@]12C(=O)Nc1cccc(Br)c12 [4f, Ethyl (1′R,3R,3′S)-4-bromo-1′-hydroxy-5′,7′-dinitro-2-oxo-3′,4′-dihydro-1′H-spiro[indoline-3,2′-naphthalene]-3′-carboxylate]	66.9 ± 9.1%	20.7 ± 3.5 µM	25.8 ± 4.2 µM	27.2 ± 3 µM	–
CCOC(=O)[C@H]1Cc2c(cc([N+](=O)[O-])cc2[N+](=O)[O-])[C@H](O)[C@]12C(=O)Nc1cccc(Br)c12 [4f′, Ethyl (1′S,3S,3′S)-4-bromo-1′-hydroxy-5′,7′-dinitro-2-oxo-3′,4′-dihydro-1′H-spiro[indoline-3,2′-naphthalene]-3′-carboxylate]	54.8%	69.8 µM	> 50 µM	> 50 µM	–
CCOC(=O)[C@H]1Cc2c(cc([N+](=O)[O-])cc2[N+](=O)[O-])[C@@H](O)[C@@]12C(=O)Nc1ccc(Br)cc12 [4g, Ethyl (1′R,3R,3′S)-5-bromo-1′-hydroxy-5′,7′-dinitro-2-oxo-3′,4′-dihydro-1′H-spiro[indoline-3,2′-naphthalene]-3′-carboxylate]	92.3 ± 11.2%	4.9 ± 0.5 µM	8.6 ± 0.6 µM	9.5 ± 0.7 µM	0.28 ± 0.06 µM
CCOC(=O)[C@H]1Cc2c(cc([N+](=O)[O-])cc2[N+](=O)[O-])[C@H](O)[C@]12C(=O)Nc1ccc(Br)cc12 [4g′, Ethyl (1′S,3S,3′S)-5-bromo-1′-hydroxy-5′,7′-dinitro-2-oxo-3′,4′-dihydro-1′H-spiro[indoline-3,2′-naphthalene]-3′-carboxylate]	51.9%	> 50 µM	> 50 µM	> 50 µM	2.5 ± 0.3 µM
CCOC(=O)[C@H]1Cc2c(cc([N+](=O)[O-])cc2[N+](=O)[O-])[C@@H](O)[C@@]12C(=O)Nc1cc(Br)ccc12 [4h, Ethyl (1′R,3R,3′S)-6-bromo-1′-hydroxy-5′,7′-dinitro-2-oxo-3′,4′-dihydro-1′H-spiro[indoline-3,2′-naphthalene]-3′-carboxylate]	76.7 ± 5.2%	20.4 ± 3.3 µM	18.3 ± 1.5 µM	14.4 ± 2.8 µM	–
CCOC(=O)[C@H]1Cc2c(cc([N+](=O)[O-])cc2[N+](=O)[O-])[C@H](O)[C@]12C(=O)Nc1cc(Br)ccc12 [4h′, Ethyl (1′S,3S,3′S)-6-bromo-1′-hydroxy-5′,7′-dinitro-2-oxo-3′,4′-dihydro-1′H-spiro[indoline-3,2′-naphthalene]-3′-carboxylate]	61.2%	47.6 µM	> 50 µM	> 50 µM	–
CCOC(=O)[C@H]1Cc2c(cc([N+](=O)[O-])cc2[N+](=O)[O-])[C@@H](O)[C@@]12C(=O)Nc1ccc([N+](=O)[O-])cc12 [4i, Ethyl (1′R,3R,3′S)-1′-hydroxy-5,5′,7′-trinitro-2-oxo-3′,4′-dihydro-1′H-spiro[indoline-3,2′-naphthalene]-3′-carboxylate]	47.7 ± 4.1%	25.6 ± 2.8 µM	36.2 ± 4.6 µM	41.2 ± 6.1 µM	–
CCOC(=O)[C@H]1Cc2c(cc([N+](=O)[O-])cc2[N+](=O)[O-])[C@H](O)[C@]12C(=O)Nc1ccc([N+](=O)[O-])cc12 [4i′, Ethyl (1′S,3S,3′S)-1′-hydroxy-5,5′,7′-trinitro-2-oxo-3′,4′-dihydro-1′H-spiro[indoline-3,2′-naphthalene]-3′-carboxylate]	39.3%	47.9 µM	> 50 µM	> 50 µM	–
CCOC(=O)[C@H]1Cc2c(cc([N+](=O)[O-])cc2[N+](=O)[O-])[C@@H](O)[C@@]12C(=O)Nc1ccc(C)cc12 [4j, Ethyl (1′R,3R,3′S)-1′-hydroxy-5-methyl-5′,7′-dinitro-2-oxo-3′,4′-dihydro-1′H-spiro[indoline-3,2′-naphthalene]-3′-carboxylate]	64.4 ± 7.2%	31.1 ± 1.76 µM	38.9 ± 4.5 µM	39.3 ± 3.6 µM	–
